Data on five molecules can be found in PubChem BioAssay AID1259411 (Chemical Carcinogenesis Research Information System (CCRIS), 2018).

In the series the test system is rodent carcinogenicity bioassays, tumor incidence. Put plainly: CCRIS carcinogenicity studies. The gist of the method:
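Archive of carcinogenicity, mutagenicity, tumor promotion and tumor inhibition results drawn from journals, NCI reports and other sources, expert-reviewed; covers 1985-2011 and is no longer updated.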

Active and inactive are the calls of the source. The rule behind the calls is not given here.

On to `C=CCc1ccc2c(c1)OCO2`, for which the carcinogen call is “active; positive” (Species: MOUSE, Strain/Sex: B6AKF1/MALE,FEMALE, Route: GAVAGE, ORAL, Dose: 464 MG/KG FROM D 7-28 OF LIFE THEN 1112 MG/KG IN DIET, Tumor Site: Type of Lesion: LIVER: HEPATOCELLULAR TUMOR); “active; positive” (Species: MOUSE, Strain/Sex: B6C3F1/MALE,FEMALE, Route: GAVAGE, ORAL, Dose: 464 MG/KG FROM D 7-28 OF LIFE THEN 1112 MG/KG IN DIET, Tumor Site: Type of Lesion: LIVER: HEPATOCELLULAR TUMOR); “active; positive” (Species: MOUSE, Strain/Sex: BALB/MALE, Route: ORAL, Dose: 0, 4000 PPM IN DIET FOR 52 WK (STUDY DURATION: 75 WK), Tumor Site: Type of Lesion: LIVER: HEPATOCELLULAR CARCINOMA, HEPATOCELLULAR ADENOMA); “active; positive” (Species: MOUSE, Strain/Sex: CD-1/MALE, Route: ORAL, Dose: 4000, 5000 MG/KG IN DIET FOR 13 MO, Tumor Site: Type of Lesion: LIVER: HEPATOCELLULAR CARCINOMA); “active; positive” (Species: MOUSE, Strain/Sex: CD-1/MALE, Route: SUBCUTANEOUS, Dose: 0.66, 6.6 MG (TOTAL DOSES) IN TRICAPRYLIN IN 3 WK, Tumor Site: Type of Lesion: LIVER); “active; positive” (Species: MOUSE, Strain/Sex: SWISS/FEMALE, Route: SUBCUTANEOUS, Dose: 0.66, 6.6 MG (TOTAL DOSES) IN TRICAPRYLIN IN 3 WK, Tumor Site: Type of Lesion: LUNG: ADENOMA, ADENOCARCINOMA). For the same molecule, the carcinogen call is “active; positive” (Species: MOUSE, Strain/Sex: SWISS/MALE, Route: SUBCUTANEOUS, Dose: 0.66, 6.6 MG (TOTAL DOSES) IN TRICAPRYLIN IN 3 WK, Tumor Site: Type of Lesion: LIVER: HEPATOMA) and “active; positive” (Species: RAT, Strain/Sex: OSBORNE-MENDEL/MALE,FEMALE, Route: ORAL, Dose: 100, 500, 1000, 5000 MG/KG IN DIET FOR 2 YR, Dose: 100, 500, 1000, 5000 MG/KG IN DIET FOR 2 YR, Tumor Site: Type of Lesion: LIVER: HEPATOCELLULAR CARCINOMA, CHOLANGIOCARCINOMA).

In the case of `FCC(F)(F)F`, the carcinogen call runs as follows: (Species: MOUSE, Strain/Sex: B6C3F1/FEMALE, Route: INHALATION, Dose: 0, 2500, 15000, 75000 PPM SNOUT-ONLY INHALATION 1 HR/D FOR AT LEAST 104 WK (STUDY DURATION: 106 WK), Dose: 0, 2500, 15000, 75000 PPM SNOUT-ONLY INHALATION 1 HR/D FOR AT LEAST 104 WK (STUDY DURATION: 106 WK)) “inactive; negative”; (Species: MOUSE, Strain/Sex: B6C3F1/MALE, Route: INHALATION, Dose: 0, 2500, 15000, 75000 PPM SNOUT-ONLY INHALATION 1 HR/D FOR AT LEAST 104 WK (STUDY DURATION: 106 WK), Dose: 0, 2500, 15000, 75000 PPM SNOUT-ONLY INHALATION 1 HR/D FOR AT LEAST 104 WK (STUDY DURATION: 106 WK)) “inactive; negative”; (Species: RAT, Strain/Sex: ALPK:APFSD/FEMALE, Route: INHALATION, Dose: 0, 2500, 10000, 50000 PPM 6 HR/D 5 D/WK FOR 104 WK (STUDY DURATION: 104 WK), Dose: 0, 2500, 10000, 50000 PPM 6 HR/D 5 D/WK FOR 104 WK (STUDY DURATION: 104 WK)) “inactive; negative”; (Species: RAT, Strain/Sex: ALPK:APFSD/MALE, Route: INHALATION, Dose: 0, 2500, 10000, 50000 PPM 6 HR/D 5 D/WK FOR 104 WK (STUDY DURATION: 104 WK), Dose: 0, 2500, 10000, 50000 PPM 6 HR/D 5 D/WK FOR 104 WK (STUDY DURATION: 104 WK), Tumor Site: Type of Lesion: TESTES: LEYDIG CELL ADENOMA) “active; positive”; (Species: RAT, Strain/Sex: WISTAR/FEMALE, Route: INHALATION, Dose: 0, 2500, 10000, 50000 PPM SNOUT-ONLY INHALATION 1 HR/D FOR AT LEAST 108 WK (STUDY DURATION: 110 WK), Dose: 0, 2500, 10000, 50000 PPM SNOUT-ONLY INHALATION 1 HR/D FOR AT LEAST 108 WK (STUDY DURATION: 110 WK)) “inactive; negative”; (Species: RAT, Strain/Sex: WISTAR/MALE, Route: INHALATION, Dose: 0, 2500, 10000, 50000 PPM SNOUT-ONLY INHALATION 1 HR/D FOR AT LEAST 108 WK (STUDY DURATION: 110 WK), Dose: 0, 2500, 10000, 50000 PPM SNOUT-ONLY INHALATION 1 HR/D FOR AT LEAST 108 WK (STUDY DURATION: 110 WK)) “inactive; negative”.

Regarding `O=C1OC(c2ccc(O)cc2)(c2ccc(O)cc2)c2ccccc21`, the carcinogen call is “active; positive” (Species: MOUSE, Strain/Sex: B6C3F1/FEMALE, Route: ORAL, Dose: 0, 3000, 6000, 12000 PPM IN DIET FOR 2 YR (STUDY DURATION: 2 YR), Dose: 0, 3000, 6000, 12000 PPM IN DIET FOR 2 YR (STUDY DURATION: 2 YR), Tumor Site: Type of Lesion: OVARY: BENIGN SEX-CORD STROMAL TUMOR, LIVER: HISTIOCYTIC SARCOMA, LYMPHATIC SYSTEM: MALIGNANT LYMPHOMA, MALIGNANT LYMPHO, Tumor Site: Type of Lesion: OVARY: BENIGN SEX-CORD STROMAL TUMOR, LIVER: HISTIOCYTIC SARCOMA, LYMPHATIC SYSTEM: MALIGNANT LYMPHOMA, MALIGNANT LYMPHO); “active; positive” (Species: MOUSE, Strain/Sex: B6C3F1/MALE, Route: ORAL, Dose: 0, 3000, 6000, 12000 PPM IN DIET FOR 2 YR (STUDY DURATION: 2 YR), Dose: 0, 3000, 6000, 12000 PPM IN DIET FOR 2 YR (STUDY DURATION: 2 YR), Tumor Site: Type of Lesion: LIVER: HISTIOCYTIC SARCOMA, LYMPHATIC SYSTEM: MALIGNANT LYMPHOMA (THYMIC ORIGIN)); “active; positive” (Species: RAT, Strain/Sex: F344/FEMALE, Route: ORAL, Dose: 0, 12000, 25000, 50000 PPM IN DIET FOR 2 YR (STUDY DURATION: 2 YR), Dose: 0, 12000, 25000, 50000 PPM IN DIET FOR 2 YR (STUDY DURATION: 2 YR), Tumor Site: Type of Lesion: ADRENAL MEDULLA: BENIGN PHEOCHROMOCYTOMA, BENIGN OR MALIGNANT PHEOCHROMOCYTOMA); “active; positive” (Species: RAT, Strain/Sex: F344/MALE, Route: ORAL, Dose: 0, 12000, 25000, 50000 PPM IN DIET FOR 2 YR (STUDY DURATION: 2 YR), Dose: 0, 12000, 25000, 50000 PPM IN DIET FOR 2 YR (STUDY DURATION: 2 YR), Tumor Site: Type of Lesion: ADRENAL MEDULLA: BENIGN PHEOCHROMOCYTOMA, KIDNEY(RENAL TUBULE): ADENOMA, ADENOMA OR CARCINOMA).

For `C#C[C@]1(OC(C)=O)CC[C@H]2[C@@H]3CCC4=C[C@@H](OC(C)=O)CC[C@@H]4[C@H]3CC[C@@]21C`, the carcinogen call is, setting by setting: (Species: MOUSE, Route: ORAL, Tumor Site: Type of Lesion: MAMMARY GLAND) “active; positive”; (Species: RAT, Route: ORAL, Tumor Site: Type of Lesion: MAMMARY GLAND) “active; positive”.

For `Cc1cc(=O)[nH]c(=S)[nH]1`, the carcinogen call by setting is: (Species: HAMSTER, Route: ORAL, Tumor Site: Type of Lesion: THYROID GLAND) “active; positive”; (Species: MOUSE, Route: ORAL, Tumor Site: Type of Lesion: THYROID GLAND) “active; positive”; (Species: RAT, Route: ORAL, Tumor Site: Type of Lesion: KIDNEY, THYROID GLAND) “active; positive”.
